Like-named read-outs stand apart in the source and are kept apart here.
Tests used:
[1] = target: inactive non-phosphorylated p38α MAPK (Homo sapiens (Human), UniProt Q16539); test: Fluorescence polarisation (FP) binding assay, inactive enzyme
Protocol: (§1) A number of compounds were also assessed for the inhibition of p38α MAPK activity (www.kinase-screen.mrc.ac.uk) in which a radioactive (^33P-labelled ATP) filter binding assay was used to directly measure phosphate incorporation. Table 1 summarises the binding affinities of the synthesised compounds to both forms of the enzyme as well as the inhibitory activities against p38α MAPK. By way of enabling a comparison with a non-thiophene compound the biological testing was also carried out for known inhibitor RWJ67657, shown in table 1.
(§2) FP signals were measured with a PHERAstar microplate reader (BMG Labtech) using black, low-binding half-area 96 well plates (Corning). Each binding data point was carried out in duplicate or triplicate. Data were recorded in millipolarisation (mP) units and measured at an excitation wavelength of 485 nm and an emission wavelength of 520 nm. Tris(hydroxymethyl)aminomethane (Tris) assay buffer was used in all binding experiments and consisted of 10 mM Tris, […] potassium chloride, and 3.5 mM 3-((3-cholamidopropyl)dimethylammonium)-1-propanesulfonate (Chaps) at pH 8.0.
(§3) Test compounds were prepared from dimethylsulfoxide stocks (10 mM). […] Plates were incubated at room temperature for 1 hour and FP signals were recorded. For binding experiments to active p38α MAPK, the FP signals were recorded after 2 hours incubation at room temperature. Data is represented as mean±SEM from two to three independent experiments.

[2] = target: active phosphorylated p38α MAPK (Homo sapiens (Human), UniProt Q16539); test: Fluorescence polarisation (FP) binding assay, active enzyme
Protocol: as §1, §2, §3

[3] = Table 5, read-out: Ki ± SEM (μM) to inactive p38α MAPK
[4] = Table 6, read-out: Ki ± SEM (μM) to inactive p38α
[5] = Table 5, read-out: Ki ± SEM (μM) to active p38α MAPK
[6] = Table 6, read-out: Ki ± SEM (μM) to active p38α
[7] = read-out: Ki to active p38α MAPK

inactive non-phosphorylated p38α MAPK, sequence (Q16539 whole entry): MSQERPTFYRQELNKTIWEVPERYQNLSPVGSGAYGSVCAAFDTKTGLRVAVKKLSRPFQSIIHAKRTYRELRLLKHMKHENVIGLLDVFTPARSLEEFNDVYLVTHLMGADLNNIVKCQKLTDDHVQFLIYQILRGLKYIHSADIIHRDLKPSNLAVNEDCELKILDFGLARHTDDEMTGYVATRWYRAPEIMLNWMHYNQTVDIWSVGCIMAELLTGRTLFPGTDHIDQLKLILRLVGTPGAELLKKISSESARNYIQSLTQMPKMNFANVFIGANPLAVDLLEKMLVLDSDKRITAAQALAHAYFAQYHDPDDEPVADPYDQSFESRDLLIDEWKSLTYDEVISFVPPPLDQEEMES
active phosphorylated p38α MAPK, sequence (Q16539 whole entry): as above

Ki [1, 3] [µM] | Ki [1, 4] [µM] | Ki [2, 5] [µM] | Ki [2, 6] [µM] | Ki [2, 7] [µM] | Compound
2.2 ± 0.2 | 2.2 ± 0.2 | 2.5 | 2.5 | 2.5 | Fc1ccc(-c2sc(C#CCCN3CCOCC3)cc2-c2ccncc2)cc1 [Compound 5.8, 4-(4-(5-(4-Fluorophenyl)-4-(pyridin-4-yl)thiophen-2-yl)but-3-yn-1-yl)morpholine]
 | > 10 |  | > 10 |  | COC(=O)c1ccc(-c2c(C#CCCO)sc(-c3ccc(F)cc3)c2-c2ccncc2)cc1 [Compound 3.30, Methyl 4-(5-(4-fluorophenyl)-2-(4-hydroxybut-1-yn-1-yl)-4-(pyridin-4-yl)thiophen-3-yl)benzoate]
6.4 ± 0.6 | 6.4 ± 0.6 | 1.4 | 1.4 |  | CC(=O)c1cc(-c2ccncc2)c(-c2ccc(F)cc2)s1 [Compound 5.15, 1-(5-(4-Fluorophenyl)-4-(pyridin-4-yl)thiophen-2-yl)ethanone]
 | > 10 |  | > 10 |  | O=C(Nc1ccc(-c2c(C#CCCO)sc(-c3ccc(F)cc3)c2-c2ccncc2)cc1)c1ccccc1 [Compound 3.44, N-(4-(5-(4-fluorophenyl)-2-(4-hydroxybut-1-yn-1-yl)-4-(pyridin-4-yl)thiophen-3-yl)phenyl)benzamide]
 | > 10 |  | 2.2 ± 0.3 |  | NC(=O)c1cccc(-c2c(C#CCCO)sc(-c3ccc(F)cc3)c2-c2ccncc2)c1 [Compound 3.35, 3-(5-(4-Fluorophenyl)-2-(4-hydroxybut-1-yn-1-yl)-4-(pyridin-4-yl)thiophen-3-yl)benzamide]
 | > 10 |  | > 10 |  | OCCC#Cc1sc(-c2ccc(F)cc2)c(-c2ccncc2)c1-c1ccc(C(F)(F)F)cc1 [Compound 3.52, 4-(5-(4-Fluorophenyl)-4-(pyridin-4-yl)-3-(4-(trifluoromethyl)phenyl)thiophen-2-yl)but-3-yn-1-ol]
 | > 10 |  | > 10 |  | O=C(O)c1ccc(-c2c(C#CCCO)sc(-c3ccc(F)cc3)c2-c2ccncc2)cc1 [Compound 3.32, 4-(5-(4-Fluorophenyl)-2-(4-hydroxybut-1-yn-1-yl)-4-(pyridin-4-yl)thiophen-3-yl)benzoic acid]
 | > 10 |  | 3.4 |  | OCCC#Cc1sc(-c2ccc(F)cc2)c(-c2ccncc2)c1-c1ccc(O)cc1 [Compound 3.54, 4-(5-(4-Fluorophenyl)-2-(4-hydroxybut-1-yn-1-yl)-4-(pyridin-4-yl)thiophen-3-yl)phenol]
 | > 10 |  | 3.5 |  | OCCC#Cc1sc(-c2ccc(F)cc2)c(-c2ccncc2)c1-c1ccc(CO)cc1 [Compound 3.34, 4-(5-(4-Fluorophenyl)-3-(4-(hydroxymethyl)phenyl)-4-(pyridin-4-yl)thiophen-2-yl)but-3-yn-1-ol]
 | > 10 |  | 1.8 ± 0.4 |  | N#Cc1cccc(-c2c(C#CCCO)sc(-c3ccc(F)cc3)c2-c2ccncc2)c1 [Compound 3.47, 3-(5-(4-Fluorophenyl)-2-(4-hydroxybut-1-yn-1-yl)-4-(pyridin-4-yl)thiophen-3-yl)benzonitrile]
 | > 10 |  | > 10 |  | Cc1cccc(-c2c(C#CCCO)sc(-c3ccc(F)cc3)c2-c2ccncc2)c1 [Compound 3.48, 4-(5-(4-Fluorophenyl)-4-(pyridin-4-yl)-3-(m-tolyl)thiophen-2-yl)but-3-yn-1-ol]
 | > 10 |  | > 10 |  | OCCC#Cc1sc(-c2ccc(F)cc2)c(-c2ccncc2)c1I [Compound 3.55, 4-(5-(4-Fluorophenyl)-3-iodo-4-(pyridin-4-yl)thiophen-2-yl)but-3-yn-1-ol]
 | 2.6 ± 0.6 |  | 2 ± 0.1 |  | CC(=O)Nc1cccc(-c2c(C#CCCO)sc(-c3ccc(F)cc3)c2-c2ccncc2)c1 [Compound 3.41, N-(3-(5-(4-fluorophenyl)-2-(4-hydroxybut-1-yn-1-yl)-4-(pyridin-4-yl)thiophen-3-yl)phenyl)acetamide]
1.7 ± 0.2 | 1.7 ± 0.2 | 0.8 ± 0.04 | 0.8 ± 0.04 |  | OCCCC#Cc1cc(-c2ccncc2)c(-c2ccc(F)cc2)s1 [Compound 5.3, 5-(5-(4-Fluorophenyl)-4-(pyridin-4-yl)thiophen-2-yl)pent-4-yn-1-ol]
 | > 10 |  | 2.2 ± 0.3 |  | CC(=O)c1ccc(-c2c(C#CCCO)sc(-c3ccc(F)cc3)c2-c2ccncc2)cc1 [Compound 3.53, 1-(4-(5-(4-Fluorophenyl)-2-(4-hydroxybut-1-yn-1-yl)-4-(pyridin-4-yl)thiophen-3-yl)phenyl)ethanone]
> 10 | > 10 | 1.7 | 1.7 |  | Fc1ccc(-c2sc(-c3ccco3)cc2-c2ccncc2)cc1 [Compound 5.18, 4-(2-(4-Fluorophenyl)-5-(furan-2-yl)thiophen-3-yl)pyridine]

Ki [1, 3] [µM] | Ki [1, 4] [µM] | Ki [2, 5] [µM] | Ki [2, 6] [µM] | Ki [2, 7] [µM] | Compound
 | > 10 |  | 2 ± 1 |  | NC(=O)c1ccc(-c2c(C#CCCO)sc(-c3ccc(F)cc3)c2-c2ccncc2)cc1 [Compound 3.36, 4-(5-(4-Fluorophenyl)-2-(4-hydroxybut-1-yn-1-yl)-4-(pyridin-4-yl)thiophen-3-yl)benzamide]
3.01 ± 0.03 | 3.01 ± 0.03 | 0.8 ± 0.1 | 0.8 ± 0.1 | 0.8 | Fc1ccc(-c2sc(-c3c(F)c(F)nc(F)c3F)cc2-c2ccncc2)cc1 [Compound 5.19, 2,3,5,6-Tetrafluoro-4-(5-(4-fluorophenyl)-4-(pyridin-4-yl)thiophen-2-yl)pyridine]
 | > 10 |  | 3.2 |  | Nc1cccc(-c2c(C#CCCO)sc(-c3ccc(F)cc3)c2-c2ccncc2)c1 [Compound 3.39, 4-(3-(3-Aminophenyl)-5-(4-fluorophenyl)-4-(pyridin-4-yl)thiophen-2-yl)but-3-yn-1-ol]
 | > 10 |  | 8.7 |  | COC(=O)c1ccccc1-c1c(C#CCCO)sc(-c2ccc(F)cc2)c1-c1ccncc1 [Compound 3.28, Methyl 2-(5-(4-fluorophenyl)-2-(4-hydroxybut-1-yn-1-yl)-4-(pyridin-4-yl)thiophen-3-yl)benzoate]
5.9 ± 0.7 | 5.9 ± 0.7 | 2.5 | 2.5 |  | O=C(c1ccco1)c1cc(-c2ccncc2)c(-c2ccc(F)cc2)s1 [Compound 5.17, (5-(4-Fluorophenyl)-4-(pyridin-4-yl)thiophen-2-yl) (furan-2-yl)methanone]
 | > 10 |  | > 10 |  | Cc1ccc(S(=O)(=O)Nc2ccc(-c3c(C#CCCO)sc(-c4ccc(F)cc4)c3-c3ccncc3)cc2)cc1 [Compound 3.46, N-(4-(5-(4-fluorophenyl)-2-(4-hydroxybut-1-yn-1-yl)-4-(pyridin-4-yl)thiophen-3-yl)phenyl)-4-methylbenzenesulfonamide]
 | > 10 |  | 3 |  | COC(=O)c1cccc(-c2c(C#CCCO)sc(-c3ccc(F)cc3)c2-c2ccncc2)c1 [Compound 3.29, Methyl 3-(5-(4-fluorophenyl)-2-(4-hydroxybut-1-yn-1-yl)-4-(pyridin-4-yl)thiophen-3-yl)benzoate]
 | 1.9 ± 0.2 |  | 2 ± 1 |  | O=C(NCCO)c1cccc(-c2c(C#CCCO)sc(-c3ccc(F)cc3)c2-c2ccncc2)c1 [Compound 3.37, 3-(5-(4-Fluorophenyl)-2-(4-hydroxybut-1-yn-1-yl)-4-(pyridin-4-yl)thiophen-3-yl)-N-(2-hydroxyethyl)benzamide]
1.9 ± 0.4 | 1.9 ± 0.4 | 2.3 | 2.3 |  | Fc1ccc(-c2sc(I)cc2-c2ccncc2)cc1 [Compound 5.1, 4-(2-(4-Fluorophenyl)-5-iodothiophen-3-yl)pyridine]
 | > 10 |  | > 10 |  | Nc1ccc(-c2c(C#CCCO)sc(-c3ccc(F)cc3)c2-c2ccncc2)cc1 [Compound 3.40, 4-(3-(4-Aminophenyl)-5-(4-fluorophenyl)-4-(pyridin-4-yl)thiophen-2-yl)but-3-yn-1-ol]
5 ± 0.4 | 5 ± 0.4 | 0.6 ± 0.1 | 0.6 ± 0.1 |  | Fc1ccc(-c2sccc2-c2ccncc2)cc1 [Compound 3.2, 4-(2-(4-Fluorophenyl)thiophen-3-yl)pyridine]
6.3 ± 0.4 | 6.3 ± 0.4 | 0.9 ± 0.1 | 0.9 ± 0.1 |  | O=C(c1cc(-c2ccncc2)c(-c2ccc(F)cc2)s1)N1CCNCC1 [Compound 5.14, (5-(4-Fluorophenyl)-4-(pyridin-4-yl)thiophen-2-yl) (piperazin-1-yl)methanone]
 | > 10 |  | > 10 |  | Fc1ccc(-c2sc(I)c(I)c2-c2ccncc2)cc1 [Compound 3.3, 4-(2-(4-Fluorophenyl)-4,5-diiodothiophen-3-yl)pyridine]
 | > 10 |  | 1.7 ± 0.2 |  | O=C(NCCO)c1ccc(-c2c(C#CCCO)sc(-c3ccc(F)cc3)c2-c2ccncc2)cc1 [Compound 3.38, 4-(5-(4-Fluorophenyl)-2-(4-hydroxybut-1-yn-1-yl)-4-(pyridin-4-yl)thiophen-3-yl)-N-(2-hydroxyethyl)benzamide]
> 10 | > 10 |  |  |  | NCC#Cc1cc(-c2ccncc2)c(-c2ccc(F)cc2)s1 [Compound 5.6, 3-(5-(4-Fluorophenyl)-4-(pyridin-4-yl)thiophen-2-yl)prop-2-yn-1-amine]

Source: US11273153B2, “MAPK inhibitors” (EverBrilliant Pharma Pty Ltd, priority 2014, dated 2022)
